Assay results from ChEMBL document CHEMBL5257080, “Optimization of physicochemical properties of pyrrolidine GPR40 AgoPAMs results in a differentiated profile with improved pharmacokinetics and reduced off-target activities” (Bioorg Med Chem, 2023).
Blank lines part the entries; values can stand above or below the compound they belong to. Active and inactive are the calls of the source. No cut-off for these calls is given here.

Key:
[1] = biological target: T1, Free fatty acid receptor 1 (Homo sapiens, UniProt O14842); assay: Positive allosteric modulation of human GPR40 by calcium based FLIPR analysis
T1 sequence (O14842 whole entry): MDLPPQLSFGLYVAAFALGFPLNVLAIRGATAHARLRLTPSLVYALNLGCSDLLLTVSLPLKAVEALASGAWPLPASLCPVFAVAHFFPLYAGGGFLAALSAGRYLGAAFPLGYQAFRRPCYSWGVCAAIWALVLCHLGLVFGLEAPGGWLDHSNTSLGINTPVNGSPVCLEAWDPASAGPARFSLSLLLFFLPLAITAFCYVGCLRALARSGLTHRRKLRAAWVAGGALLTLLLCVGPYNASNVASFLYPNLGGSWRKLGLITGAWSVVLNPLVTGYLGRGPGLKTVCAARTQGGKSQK

[2] = biological target: T2, Peroxisome proliferator-activated receptor gamma (Homo sapiens, UniProt P37231); assay: Transactivation of PPARgamma (unknown origin)
T2 sequence (P37231 whole entry): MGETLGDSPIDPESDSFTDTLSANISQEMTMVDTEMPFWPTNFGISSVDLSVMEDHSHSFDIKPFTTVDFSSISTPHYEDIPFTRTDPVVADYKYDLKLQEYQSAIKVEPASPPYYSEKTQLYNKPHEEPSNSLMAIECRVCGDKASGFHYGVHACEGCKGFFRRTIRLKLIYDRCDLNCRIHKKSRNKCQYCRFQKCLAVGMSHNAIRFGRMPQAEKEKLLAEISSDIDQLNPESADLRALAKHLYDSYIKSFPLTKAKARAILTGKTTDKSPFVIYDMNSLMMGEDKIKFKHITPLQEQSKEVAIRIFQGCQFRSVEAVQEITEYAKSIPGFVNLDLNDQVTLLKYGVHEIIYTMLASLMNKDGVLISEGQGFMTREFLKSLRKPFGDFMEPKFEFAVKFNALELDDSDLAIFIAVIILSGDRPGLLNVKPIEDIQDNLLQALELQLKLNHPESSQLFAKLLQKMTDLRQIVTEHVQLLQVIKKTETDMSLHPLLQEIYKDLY

[3] = Lipophilicity, logD of compound; assay type: physicochemical; settings: octanol/water
[4] = biological target: T1, Free fatty acid receptor 1; assay: Positive allosteric modulation of human GPR40 expressed in HEK293 cells; assay type: cell-based
[5] = Cmax in mouse at 1 mg/kg; assay type: ADME, organism-based; design: dose 1 mg/kg; settings: in vivo
[6] = AUC (0-7hrs) in mouse at 1 mg/kg; assay type: ADME, organism-based; design: dose 1 mg/kg; settings: in vivo
[7] = biological target: T1, Free fatty acid receptor 1; assay: Positive allosteric modulation of human GPR40 expressed in HEK293 cells assessed as maximum efficacy relative to control; assay type: cell-based; settings: filed as positive allosteric modulator
[8] = Toxicity in rat; settings: in vivo
[9] = Toxicity in rat assessed as change in heart rate; settings: in vivo
[10] = Toxicity in rat assessed as change in spontaneous locomotor activity; settings: in vivo
[11] = Toxicity in Sprague-Dawley rat assessed as hypoglycemia at 80 mg/kg, po measured for 24 hrs by glucometer analysis; assay type: organism-based; settings: in vivo
[12] = Permeability of compound across apical to basolateral side in dog MDCK cells; assay type: ADME, cell-based, Canis lupus familiaris; settings: read-out: permeability
[13] = Tmax in rat at 240 mg/kg qd; assay type: ADME, organism-based; settings: in vivo
[14] = Tmax in rat at 800 mg/kg qd; assay type: ADME, organism-based; settings: in vivo
[15] = Tmax in rat at 80 mg/kg qd; assay type: ADME, organism-based; settings: in vivo
[16] = Cmax in rat at 80 mg/kg qd; assay type: ADME, organism-based; design: dose 80 mg/kg; settings: in vivo
[17] = Cmax in rat at 240 mg/kg qd; assay type: ADME, organism-based; design: dose 240 mg/kg; settings: in vivo
[18] = Cmax in rat at 800 mg/kg qd; assay type: ADME, organism-based; design: dose 800 mg/kg; settings: in vivo
[19] = Cmax in rat at 40 mg/kg bid; assay type: ADME, organism-based; design: dose 40 mg/kg; settings: in vivo
[20] = AUC (0 to 24 hrs) in rat at 80 mg/kg qd; assay type: ADME, organism-based; design: dose 80 mg/kg; settings: in vivo
[21] = AUC (0 to 24 hrs) in rat at 240 mg/kg qd; assay type: ADME, organism-based; design: dose 240 mg/kg; settings: in vivo
[22] = AUC (0 to 24 hrs) in rat at 800 mg/kg qd; assay type: ADME, organism-based; design: dose 800 mg/kg; settings: in vivo
[23] = biological target: Free fatty acid receptor 1 (Mus musculus, UniProt Q76JU9); assay: Positive allosteric modulation of mouse GPR40
Free fatty acid receptor 1 (Mus musculus, UniProt Q76JU9), sequence (Q76JU9 whole entry): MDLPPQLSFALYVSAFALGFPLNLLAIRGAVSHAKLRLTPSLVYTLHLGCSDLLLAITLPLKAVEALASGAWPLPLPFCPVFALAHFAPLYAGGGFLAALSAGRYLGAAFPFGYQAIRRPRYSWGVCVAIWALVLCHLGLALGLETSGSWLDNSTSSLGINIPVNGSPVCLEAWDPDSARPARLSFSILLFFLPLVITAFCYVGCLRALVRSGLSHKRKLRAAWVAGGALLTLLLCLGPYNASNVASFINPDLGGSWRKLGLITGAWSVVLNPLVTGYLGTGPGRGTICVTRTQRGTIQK

[24] = Metabolic stability in mouse liver microsome assessed as parent compound remaining after 10 mins; assay type: ADME; settings: liver microsomes, read-out: Stability
[25] = tested on: Mus musculus; assay: Anti-hyperglycemic activity against mouse assessed as reduction in plasma glucose level at 3 mg/kg, po by OGTT analysis; assay type: functional, organism-based
[26] = Drug concentration in mouse plasma measured after 3 hrs; assay type: ADME

EC50 [1]: 220 nM
Compound: CCOc1ccc(F)c(N2CC[C@@H](Oc3ccc(N4C[C@](C)(OC)C[C@@H]4CC(=O)O)cc3)[C@H](C)C2)c1

EC50 [1]: 430 nM
Compound: CCOc1ccc(F)c(N2CC[C@@H](Oc3ccc(N4C[C@H](C(F)(F)F)C[C@@H]4CC(=O)O)cc3)[C@H](CC)C2)c1

EC50 [2]: > 47 µM
logD [3]: 2.15
Compound: CCOc1ccc(F)c(N2CCC(Oc3ccc(N4C[C@H](Oc5cccc(OC)c5)C[C@@H]4CC(=O)O)cc3)CC2)c1

EC50 [1]: 180 nM
Compound: COCCOCO[C@H]1CN(c2ccc(O[C@@H]3CCN(c4cc(OC)ncc4Cl)C[C@H]3C)cc2)[C@@H](CC(=O)O)[C@@H]1C

EC50 [4]: 4100 nM
EC50 [2]: > 50 µM
Compound: COc1ccc(F)c(N2CCC(Oc3ccc(N4CCC[C@H]4CC(=O)O)cc3)CC2)c1

EC50 [2]: > 48 µM
Compound: CCOc1ccc(F)c(N2CC[C@@H](Oc3ccc(N4CC(C)(C)C[C@@H]4CC(=O)O)cc3)[C@H](C)C2)c1

EC50 [2]: > 48 µM
Cmax [5]: 500 nM
AUC(0-t) [6]: 0.5 µM·h
Compound: CCOc1ccc(F)c(N2CC[C@@H](Oc3ccc(N4C[C@H](OC)[C@@H](C)[C@@H]4CC(=O)O)cc3)[C@H](C)C2)c1

Emax [7]: 97%
Compound: COc1ccc(F)c(-c2ccc(Cc3ccc(N4C[C@H](C(F)(F)F)C[C@@H]4CC(=O)O)cc3)c(C)c2)c1
Activity [8]: Toxic
Activity [9]: Non-Toxic
Activity [10]: Non-Toxic
Activity [11]: Non-Toxic

EC50 [2]: > 48 µM
Compound: COc1cc(N2CC[C@@H](Oc3ccc(N4C[C@H](C(F)(F)F)[C@@H](C)[C@@H]4CC(=O)O)cc3)[C@H](C)C2)c(Cl)cn1

EC50 [2]: > 48 µM
EC50 [1]: 230 nM
Compound: CCOc1ccc(F)c(N2CC[C@@H](Oc3ccc(N4C[C@H](c5ccccc5)C[C@@H]4CC(=O)O)cc3)[C@H](C)C2)c1

EC50 [1]: 430 nM
Compound: CCOc1ccc(F)c(N2CC[C@@H](Oc3ccc(N4C[C@H](C(F)(F)F)C[C@@H]4CC(=O)O)cc3)[C@H](CC(C)C)C2)c1

EC50 [1]: 740 nM
Compound: CCOc1ccc(F)c(N2CC[C@@H](Oc3ccc(N4C[C@H](C(F)(F)F)C[C@@H]4CC(=O)O)cc3)[C@H](Cc3ccccc3)C2)c1

EC50 [2]: > 48 µM
Compound: CCOc1ccc(F)c(N2CC[C@@H](Oc3ccc(N4C[C@H](C(F)(F)F)C[C@@H]4CC(=O)O)cc3)[C@H](C)C2)c1

EC50 [1]: 190 nM
Compound: CCCCCO[C@H]1CN(c2ccc(O[C@@H]3CCN(c4cc(OC)ncc4Cl)C[C@H]3C)cc2)[C@@H](CC(=O)O)[C@@H]1C

Papp A→B [12]: 5.7 ×10⁻⁶ cm/s
Tmax [13]: 6 h
Tmax [14]: 48 h
Tmax [15]: 4 h
Cmax [16]: 30 µM
Cmax [17]: 30 µM
Cmax [18]: 65 µM
Cmax [19]: 30 µM
AUC [20]: 243 µM·h
AUC [21]: 1080 µM·h
AUC [22]: 1430 µM·h
Compound: COc1ccc(F)c(-c2ccc(Cc3ccc(N4N=C(C(F)(F)F)[C@@H](C)[C@@H]4CC(=O)O)cc3)c(C)c2)c1
Activity [11]: Non-Toxic

EC50 [2]: > 48 µM
EC50 [1]: 110 nM
Compound: COc1cc(N2CC[C@@H](Oc3ccc(N4CC[C@@H](C)[C@@H]4CC(=O)O)cc3)[C@H](C)C2)c(Cl)cn1

EC50 [4]: 1400 nM
EC50 [2]: > 50 µM
Compound: COc1ccc(F)c(N2CCC(Oc3ccc(N4CCC[C@@H]4CC(=O)O)cc3)CC2)c1

EC50 [2]: 12 µM
Compound: CCOc1ccc(F)c(N2CC[C@@H](Oc3ccc(N4C[C@H](OC)C[C@@H]4CC(=O)O)cc3)[C@H](C)C2)c1

EC50 [1]: 120 nM
Compound: COc1cc(N2CC[C@@H](Oc3ccc(N4C[C@H](OCCCC#N)[C@@H](C)[C@@H]4CC(=O)O)cc3)[C@H](C)C2)c(Cl)cn1

EC50 [2]: > 48 µM
Compound: COc1cc(N2CC[C@@H](Oc3ccc(N4C[C@H](F)[C@@H](OC)[C@@H]4CC(=O)O)cc3)[C@H](C)C2)c(Cl)cn1

EC50 [2]: > 47 µM
logD [3]: 0.81
Compound: CCOc1ccc(F)c(N2CCC(Oc3ccc(N4C[C@H](OCCCOC)C[C@@H]4CC(=O)O)cc3)CC2)c1

logD [3]: 1.3
Compound: CCOc1ccc(F)c(N2CC[C@@H](Oc3ccc(N4C[C@H](OCCCOC)C[C@@H]4CC(=O)O)cc3)[C@H](C)C2)c1

EC50 [2]: > 47 µM
logD [3]: 2.44
Compound: CCOc1ccc(F)c(N2CCC(Oc3ccc(N4C[C@H](Oc5ccccc5)C[C@@H]4CC(=O)O)cc3)CC2)c1

EC50 [2]: > 48 µM
EC50 [1]: 29 nM
EC50 [23]: 48 nM
remaining at 10 min [24]: 97%
concentration at 3 h [26]: 156 nM
Compound: COc1cc(N2CC[C@@H](Oc3ccc(N4C[C@H](F)[C@@H](C)[C@@H]4CC(=O)O)cc3)[C@H](C)C2)c(Cl)cn1
Activity [25]: inactive

EC50 [2]: > 47 µM
EC50 [1]: 51 nM
logD [3]: 1.82
EC50 [23]: 18 nM
Cmax [5]: 1400 nM
AUC(0-t) [6]: 2.9 µM·h
Compound: CCOc1ccc(F)c(N2CC[C@@H](Oc3ccc(N4C[C@H](OCCCOC)[C@@H](C)[C@@H]4CC(=O)O)cc3)[C@H](C)C2)c1
